Assay results taken from ChEMBL document CHEMBL1201862, “PubChem BioAssay data set” (2004).
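Step 1: Grow cells in 96-well plates. Step 2: Expose to compound for 48 hours at 5 concentrations. Step 3: Interpolate endpoints linearly; if unreached, use highest concentration. The concentration for 50% growth inhibition is given as GI50.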 The source made the active and inactive calls. Cut-off read from the data, not from the text of the source: active = GI50 up to about 1.1 µM and inactive = higher.

Assays:
Test in all cases: inhibition of tumour cell growth, NCI panel, 48 h
[1] = tested on: MDA-MB-435
[2] = tested on: HOP-62
[3] = tested on: SW-620
[4] = tested on: UACC-62
[5] = tested on: HOP-92
[6] = tested on: RPMI-8226
[7] = tested on: U-251
[8] = tested on: HCT-116
[9] = tested on: OVCAR-8
[10] = tested on: Malme-3M
[11] = tested on: SN12C
[12] = tested on: IGROV-1
[13] = tested on: SNB-19
[14] = tested on: TK-10
[15] = tested on: NCI-H23
[16] = tested on: EKVX
[17] = tested on: 786-0
[18] = tested on: HCT-15
[19] = tested on: UO-31
[20] = tested on: NCI-H226
[21] = tested on: SF-268
[22] = tested on: SF-539
[23] = tested on: ACHN
[24] = tested on: MDA-MB-231
[25] = tested on: DU-145
[26] = tested on: SF-295
[27] = tested on: NCI-H522
[28] = tested on: NCI/ADR-RES
[29] = tested on: COLO 205
[30] = tested on: KM12
[31] = tested on: NCI-H460
[32] = tested on: MDA-N
[33] = tested on: HT-29
[34] = tested on: K562
[35] = tested on: A498
[36] = tested on: SNB-75
[37] = tested on: CAKI-1
[38] = tested on: M14
[39] = tested on: A549
[40] = tested on: SK-MEL-5
[41] = tested on: SR
[42] = tested on: HCC 2998
[43] = tested on: UACC-257
[44] = tested on: OVCAR-4
[45] = tested on: SK-MEL-2
[46] = tested on: MCF7
[47] = tested on: BT-549
[48] = tested on: T47D
[49] = tested on: Hs-578T
[50] = tested on: LOX IMVI
[51] = tested on: PC-3
[52] = tested on: SK-OV-3
[53] = tested on: SK-MEL-28
[54] = tested on: OVCAR-5
[55] = tested on: RXF 393
[56] = tested on: OVCAR-3
[57] = tested on: MOLT-4
[58] = tested on: HL-60
[59] = tested on: CCRF-CEM

Measured: GI50

c1ccc(CN2CCC3(CC2)SSC2(CCN(Cc4ccccc4)CC2)SS3)cc1
> 100 µM: [18]
inactive: [1] > 100 µM | [2] > 100 µM | [3] 5.48 µM | [4] > 100 µM | [5] > 100 µM | [6] > 100 µM | [7] > 100 µM | [8] > 100 µM | [9] > 100 µM | [10] 97.5 µM | [11] > 100 µM | [12] > 100 µM | [13] > 100 µM | [14] > 100 µM | [15] 79.1 µM | [16] 12.9 µM | [17] > 100 µM | [19] > 100 µM | [20] > 100 µM | [21] > 100 µM | [22] > 100 µM | [23] > 100 µM | [24] > 100 µM | [25] > 100 µM | [26] > 100 µM | [27] 37 µM | [28] > 100 µM | [29] 64 µM | [30] > 100 µM | [31] > 100 µM | [32] > 100 µM | [33] 27.2 µM | [34] > 100 µM | [35] > 100 µM | [36] > 100 µM | [37] > 100 µM | [38] > 100 µM | [39] > 100 µM | [40] 57.3 µM | [41] 83.2 µM | [42] 45.5 µM | [43] 59.7 µM | [44] > 100 µM | [45] > 100 µM | [46] > 100 µM | [47] > 100 µM | [48] > 100 µM | [49] > 100 µM | [50] > 100 µM | [51] > 100 µM | [52] > 100 µM | [53] 34.9 µM | [54] > 100 µM | [55] > 100 µM | [56] > 100 µM | [57] > 100 µM

CC(C)(C)c1cc(/C=C(\C#N)C(=O)NCCO)cc(C(C)(C)C)c1O
inactive: [1] 21.1 µM | [2] 21.2 µM | [3] 28.8 µM | [4] 13.6 µM | [5] 45.7 µM | [6] 12.3 µM | [7] 18 µM | [8] 16.9 µM | [9] 38.6 µM | [10] 17.3 µM | [11] 19 µM | [12] 40.7 µM | [13] 32.1 µM | [14] 22.3 µM | [15] 27.9 µM | [16] 24.5 µM | [17] 21.8 µM | [19] 19.9 µM | [20] 19.5 µM | [21] 31.9 µM | [22] 18.3 µM | [23] 27.2 µM | [24] 18.4 µM | [25] 34 µM | [26] 16.9 µM | [27] 16.5 µM | [28] 23 µM | [29] 20.5 µM | [30] 21.5 µM | [31] 20.7 µM | [32] 18.7 µM | [33] 21 µM | [34] 24 µM | [35] 20.3 µM | [36] 31.8 µM | [37] 24.5 µM | [38] 17.1 µM | [39] 27.4 µM | [40] 14.9 µM | [41] 17.5 µM | [43] 17.5 µM | [44] 17.8 µM | [58] 15.7 µM | [59] 15.1 µM | [45] 17.6 µM | [46] 26.5 µM | [47] 25.1 µM | [48] 20.1 µM | [49] 37.8 µM | [50] 25.1 µM | [51] 18.2 µM | [52] 20.7 µM | [53] 21.6 µM | [54] 24.1 µM | [55] 27.4 µM | [56] 14.6 µM | [57] 18.7 µM
20.7 µM: [18]

CC12Nc3ccccc3N1C(=O)c1ccccc12 (centres undefined)
> 100 µM: [18]
inactive: [1] > 100 µM | [2] > 100 µM | [3] > 100 µM | [4] > 100 µM | [5] > 100 µM | [6] > 100 µM | [7] > 100 µM | [8] > 100 µM | [9] > 100 µM | [11] > 100 µM | [12] > 100 µM | [13] > 100 µM | [14] > 100 µM | [15] > 100 µM | [16] > 100 µM | [17] > 100 µM | [19] > 100 µM | [20] > 100 µM | [21] > 100 µM | [22] > 100 µM | [23] > 100 µM | [24] > 100 µM | [25] 88.1 µM | [26] > 100 µM | [27] > 100 µM | [28] > 100 µM | [29] > 100 µM | [30] > 100 µM | [31] > 100 µM | [32] > 100 µM | [33] > 100 µM | [34] > 100 µM | [35] > 100 µM | [37] > 100 µM | [38] > 100 µM | [39] > 100 µM | [40] > 100 µM | [41] > 100 µM | [42] > 100 µM | [43] > 100 µM | [44] > 100 µM | [58] > 100 µM | [59] > 100 µM | [45] > 100 µM | [46] > 100 µM | [47] > 100 µM | [48] > 100 µM | [49] > 100 µM | [50] > 100 µM | [51] > 100 µM | [52] > 100 µM | [53] > 100 µM | [54] > 100 µM | [55] > 100 µM | [56] > 100 µM | [57] > 100 µM

CC(CC(=O)O)C(C(=O)O)C(=O)O (centres undefined)
inactive: [1] > 100 µM | [2] > 100 µM | [3] > 100 µM | [4] > 100 µM | [5] > 100 µM | [6] > 100 µM | [7] > 100 µM | [8] > 100 µM | [9] > 100 µM | [10] > 100 µM | [11] > 100 µM | [12] > 100 µM | [13] > 100 µM | [14] > 100 µM | [15] > 100 µM | [16] > 100 µM | [17] > 100 µM | [19] > 100 µM | [20] > 100 µM | [21] > 100 µM | [22] > 100 µM | [23] > 100 µM | [24] > 100 µM | [25] > 100 µM | [26] > 100 µM | [27] > 100 µM | [28] > 100 µM | [29] > 100 µM | [30] > 100 µM | [31] > 100 µM | [32] > 100 µM | [33] > 100 µM | [34] > 100 µM | [35] > 100 µM | [36] > 100 µM | [37] > 100 µM | [38] > 100 µM | [39] > 100 µM | [40] > 100 µM | [41] > 100 µM | [43] > 100 µM | [44] > 100 µM | [58] > 100 µM | [59] > 100 µM | [45] > 100 µM | [46] > 100 µM | [47] > 100 µM | [48] > 100 µM | [49] > 100 µM | [50] > 100 µM | [51] > 100 µM | [52] > 100 µM | [53] > 100 µM | [54] > 100 µM | [55] > 100 µM | [56] > 100 µM | [57] > 100 µM
> 100 µM: [18]

COC(=O)C1C/C(=C/N(C)C)C(=S)N1 (centres undefined)
> 100 µM: [18]
inactive: [1] > 100 µM | [2] > 100 µM | [3] > 100 µM | [4] > 100 µM | [5] 54.1 µM | [6] > 100 µM | [7] > 100 µM | [8] > 100 µM | [9] > 100 µM | [10] > 100 µM | [12] > 100 µM | [13] > 100 µM | [14] > 100 µM | [15] > 100 µM | [16] > 100 µM | [17] > 100 µM | [19] > 100 µM | [21] > 100 µM | [23] > 100 µM | [24] > 100 µM | [25] > 100 µM | [26] > 100 µM | [27] > 100 µM | [28] > 100 µM | [29] > 100 µM | [30] > 100 µM | [31] 11.6 µM | [32] > 100 µM | [33] > 100 µM | [34] > 100 µM | [35] > 100 µM | [36] > 100 µM | [37] > 100 µM | [38] > 100 µM | [39] > 100 µM | [40] > 100 µM | [41] > 100 µM | [42] > 100 µM | [43] > 100 µM | [44] > 100 µM | [59] > 100 µM | [45] > 100 µM | [46] > 100 µM | [47] > 100 µM | [48] > 100 µM | [49] > 100 µM | [51] > 100 µM | [52] > 100 µM | [53] > 100 µM | [54] > 100 µM | [55] > 100 µM | [56] > 100 µM | [57] > 100 µM
